Laboratory results as given in patent publication US20170107212A1, “NOVEL COMPOUNDS” (Bayer Pharma Aktiengesellschaft, priority 2014, published 2017).
Where a name gives a salt, the structure may show the parent alone.

Assays:
[1] = system: constitutive active colorectal cancer cell (CRC) Wnt pathway, HCT116 TOPFlash; assay: Cellular reporter assay, HCT116 Super TopFlash (constitutive active Wnt pathway), luciferase expression; assay type: cell-based; settings: HCT116 Super TopFlash reporter cells, 36 hours incubation, dilution series 50 μM to 15 nM
How it was run: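 HCT116 cells stably carrying Super TopFlash (β-catenin ΔS45, constitutive Wnt) run in parallel with FOP control line; compounds 50 μM to 15 nM (3.16-fold) in CAFTY buffer pH 7.4 with 2 mM Ca2+, 0.01% BSA, 36 h at 37 °C. Luciferase luminescence read as Wnt activity.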

HCT116 FOPFlash = assay: Control reporter assay, HCT116 FOP control vector (non-functional TCF elements), luciferase expression; assay type: cell-based; settings: Homo sapiens, HCT116 FOP control reporter cells, 36 hours incubation, dilution series 50 μM to 15 nM
How it was run: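 Stable HCT116 cells carrying FOP vector (randomized non-functional TCF sites) plus pcDNA3, run in parallel with TOP line; compounds 50 μM to 15 nM (3.16-fold steps) added in CAFTY buffer pH 7.4 with 2 mM Ca2+, 0.01% BSA. Incubated 36 h at 37 °C, 5% CO2; luciferase luminescence read.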

SMILES | IC50 ([1]; Homo sapiens, HCT-116, 36 h) [µM] | IC50 (HCT116 FOPFlash; HCT-116, 36 h) [µM] | IC50 [1] [µM] | IC50 ([1]; Homo sapiens, HCT-116) [µM] | IC50 (HCT116 FOPFlash; HCT-116) [µM]
Nc1ncc(-c2ccc(NC(=O)c3ccc(OC(F)(F)F)c(NC(=O)CN4CCOCC4)c3)nc2)cn1 [Example 17, N-[5-(2-aminopyrimidin-5-yl)pyridin-2-yl]-3-[(morpholin-4-ylacetyl)amino]-4-(trifluoromethoxy)benzamide] | 0.12 | ≥ 50 | – | – | –
CC(C(=O)Nc1cc(C(=O)Nc2ccc(-c3ccncc3)nc2)ccc1OC(F)(F)F)N1CCOCC1 (stereo not drawn) [Example 22, N-(2,4′-bipyridin-5-yl)-3-{[2-(morpholin-4-yl)propanoyl]amino}-4-(trifluoromethoxy)benzamide] | 0.285 | ≥ 50 | – | – | –
O=C(CN1CCOCC1)Nc1cc(C(=O)Nc2ccc(-c3cccnc3)cn2)ccc1OC(F)(F)F [Example 14, N-(3,3′-bipyridin-6-yl)-3-[(morpholin-4-ylacetyl)amino]-4-(trifluoromethoxy)benzamide] | 0.0423 | ≥ 50 | – | – | –
CN1CCN(CC(=O)Nc2cc(C(=O)Nc3nnc(-c4cccnc4)s3)ccc2OC(F)(F)F)CC1 [Example 20, 3-{[(4-methylpiperazin-1-yl)acetyl]amino}-N-[5-(pyridin-3-yl)-1,3,4-thiadiazol-2-yl]-4-(trifluoromethoxy)benzamide hydrochloride] | 0.167 | 40 | – | – | –
CN1CCN(C2(C(=O)Nc3cc(C(=O)Nc4nnc(-c5ccccn5)s4)ccc3OC(F)(F)F)CC2)CC1 [Example 18, 3-({[1-(4-methylpiperazin-1-yl)cyclopropyl]carbonyl}amino)-N-[5-(pyridin-2-yl)-1,3,4-thiadiazol-2-yl]-4-(trifluoromethoxy)benzamide hydrochloride] | 0.106 | 10.3 | – | – | –
Cc1cccnc1-c1nnc(NC(=O)c2ccc(OC(F)(F)F)c(NC(=O)CN3CCN(C)CC3)c2)s1 [Example 42, 1-methyl-4-(2-{[5-{[5-(3-methylpyridin-2-yl)-1,3,4-thiadiazol-2-yl]carbamoyl}-2-(trifluoromethoxy)phenyl]amino}-2-oxoethyl)piperazin-1-ium hexafluorophosphate] | – | – | – | 0.32 | 38.5
Cc1cncc(-c2nnc(NC(=O)c3ccc(OC(F)(F)F)c(NC(=O)CN4CCN(C)CC4)c3)s2)c1 [Example 39, 1-methyl-4-(2-{[5-{[5-(5-methylpyridin-3-yl)-1,3,4-thiadiazol-2-yl]carbamoyl}-2-(trifluoromethoxy)phenyl]amino}-2-oxoethyl)piperazin-1-ium hexafluorophosphate] | – | – | – | 0.0858 | ≥ 50
CC(C(=O)Nc1cc(C(=O)Nc2ccc(-c3cccnc3)nc2)ccc1OC(F)(F)F)N1CCOCC1 (stereo not drawn) [Example 8, N-(2,3′-bipyridin-5-yl)-3-{[2-(morpholin-4-yl)propanoyl]amino}-4-(trifluoromethoxy)benzamide] | 0.0116 | ≥ 50 | – | – | –
CN1CCN(CC(=O)Nc2cc(C(=O)Nc3nnc(-c4nccs4)s3)ccc2OC(F)(F)F)CC1 [Example 45, 1-methyl-4-(2-oxo-2-{[5-{[5-(1,3-thiazol-2-yl)-1,3,4-thiadiazol-2-yl]carbamoyl}-2-(trifluoromethoxy)phenyl]amino}ethyl)piperazin-1-ium hexafluorophosphate] | – | – | – | 1.48 | 45

More lines, main results first:

IC50 ([1]; Homo sapiens, HCT-116, 36 h) [µM] | IC50 (HCT116 FOPFlash; HCT-116, 36 h) [µM] | IC50 [1] [µM] | SMILES | IC50 ([1]; Homo sapiens, HCT-116) [µM] | IC50 (HCT116 FOPFlash; HCT-116) [µM]
– | ≥ 50 | 0.06 | Cc1ccncc1-c1nnc(NC(=O)c2ccc(OC(F)(F)F)c(NC(=O)CN3CCN(C)CC3)c2)s1 [Example 36, 3-{[(4-methylpiperazin-1-yl)acetyl]amino}-N-[5-(4-methylpyridin-3-yl)-1,3,4-thiadiazol-2-yl]-4-(trifluoromethoxy)benzamide hydrochloride (1:1)] | – | –
12.2 | ≥ 50 | – | O=C(CN1CCOCC1)Nc1cc(C(=O)Nc2nnc(-c3cncs3)s2)ccc1OC(F)(F)F [Example 103, 3-[(morpholin-4-ylacetyl)amino)-N-[5-(1,3-thiazol-5-yl)-1,3,4-thiadiazol-2-yl]-4-(trifluoromethoxy)benzamide] | – | –
18 | ≥ 50 | – | CN1CCN(CC(=O)Nc2cc(C(=O)Nc3nnc(-c4cncnc4)s3)ccc2OC(F)(F)F)CC1 [Example 87, 3-{[(4-methylpiperazin-1-yl)acetyl]amino}-N-[5-(pyrimidin-5-yl)-1,3,4-thiadiazol-2-yl)-4-(trifluoromethoxy)benzamide] | – | –
≥ 50 | ≥ 50 | – | Cc1ncsc1-c1nnc(NC(=O)c2ccc(OC(F)(F)F)c(NC(=O)CN3CCOCC3)c2)s1 [Example 108, N-[5-(4-methyl-1,3-thiazol-5-yl)-1,3,4-thiadiazol-2-yl)-3-[(morpholin-4-ylacetyl)amino]-4-(trifluoromethoxy)benzamide] | – | –
8.55 | ≥ 50 | – | Cc1ncc(-c2nnc(NC(=O)c3ccc(OC(F)(F)F)c(NC(=O)CN4CCN(C)CC4)c3)s2)s1 [Example 99, 3-{[(4-methylpiperazin-1-yl)acetyl)amino}-N-[5-(2-methyl-1,3-thiazol-5-yl)-1,3,4-thiadiazol-2-yl]-4-(trifluoromethoxy)benzamide] | – | –
0.268 | ≥ 50 | – | CN1CCN(CC(=O)Nc2cc(C(=O)Nc3nnc(-c4ccc(N)nc4)s3)ccc2OC(F)(F)F)CC1 [Example 38, N-[5-(6-aminopyridin-3-yl)-1,3,4-thiadiazol-2-yl]-3-{[(4-methylpiperazin-1-yl)acetyl]amino}-4-(trifluoromethoxy)benzamide] | – | –
≥ 50 | ≥ 50 | – | Nc1ccc(-c2nnc(NC(=O)c3ccc(OC4CC4)c(NC(=O)CN4CCOCC4)c3)s2)cn1 [Example 119, N-[5-(6-aminopyridin-3-yl)-1,3,4-thiadiazol-2-yl]-4-(cyclopropyloxy)-3-[(morpholin-4-ylacetyl)amino]benzamide] | – | –
0.31 | ≥ 50 | – | Nc1ccc(-c2nnc(NC(=O)c3ccc(OC(F)(F)F)c(NC(=O)C4(N5CCOCC5)CC4)c3)s2)cn1 [Example 49, N-[5-(6-aminopyridin-3-yl)-1,3,4-thiadiazol-2-yl]-3-({[1-(morpholin-4-yl)cyclopropyl]carbonyl}amino)-4-(trifluoromethoxy)benzamide] | – | –
0.18 | ≥ 50 | – | CN1CCN(CC(=O)Nc2cc(C(=O)Nc3nnc(-c4cccnc4)s3)c(F)cc2OC(F)(F)F)CC1 [Example 77, 2-fluoro-5-{[(4-methylpiperazin-1-yl)acetyl]amino}-N-[5-(pyridin-3-yl)-1,3,4-thiadiazol-2-yl]-4-(trifluoromethoxy)benzamide] | – | –
≥ 50 | ≥ 50 | – | O=C(CN1CCOCC1)Nc1cc(C(=O)Nc2nnc(-c3nccs3)s2)ccc1OC(F)(F)F [Example 101, 3-[(morpholin-4-ylacetyl)amino]-N-[5-(1,3-thiazol-2-yl)-1,3,4-thiadiazol-2-yl]-4-(trifluoromethoxy)benzamide] | – | –
0.037 | ≥ 50 | – | O=C(CN1CCOCC1)Nc1cc(C(=O)Nc2ccc(-c3cncnc3)cn2)ccc1OC1CC1 [Example 75, 4-(cyclopropyloxy)-3-[(morpholin-4-ylacetyl)amino]-N-[5-(pyrimidin-5-yl)pyridin-2-yl]benzamide] | – | –
≥ 50 | ≥ 50 | – | O=C(CN1CCOCC1)Nc1cc(C(=O)Nc2nnc(-c3ncccc3F)s2)ccc1OC(F)(F)F [Example 96, N-[5-(3-fluoropyridin-2-yl)-1,3,4-thiadiazol-2-yl]-3-[(morpholin-4-ylacetyl)amino]-4-(trifluoromethoxy}benzamide] | – | –
